Measurements as given in patent US7074447B2 (Laboratories Miret, S.A., priority 2001, dated 2006).

Legend:
Assay in all cases: minimum inhibition concentration and Kull synergy index of LAE / potassium sorbate
Format in all cases: cell-based
Settings in all cases: for SI, synergy index: <1 synergism, 1 addition, >1 antagonism
[1] = tested on: Citrobacter intermedium (CECT 401)
Protocol: (§1) The invention is now explained by a number of examples. In these examples LAE and sorbate alone and in a number of different combinations have been investigated against a number of bacterial preparations. For the analysis usually an internal method was used. Conditions and medium were Mueller Hinton broth (pH 7.4) or (pH 5.0) for bacteria, Sabouraud broth (pH 5.8) for yeast and Sabouraud medium for moulds. The interaction of the two components of the antimicrobial mixture is calculated according to the method described by Kull et al. (Kull […]. and Mayer R. L., Applied Microbiology, 1961; 6:538-541). According to this method the so-called synergy index is calculated according to the following formula: Synergy index […]. […] The same method was used as described for example 1. […] Again the effects of the components alone and in combination have been calculated using the same method as described at Example 1.

[2] = tested on: Cladosporium cladosporioides (ATCC 16022)
Protocol: as §1

[3] = tested on: Escherichia coli (ATCC 8739)
Protocol: as §1

[4] = tested on: Penicillium camemberti (CECT 2267)
Protocol: as §1

SMILES: CCCCCCCCCCCC(=O)N[C@@H](CCCNC(=N)N)C(=O)OCC.Cl [LAE, L-arginine, N^α-lauroyl-ethylester monohydrochloride]
- QLAE, minimum inhibition concentration of LAE as single antimicrobial ([1]; pH 5.0): 12.8
- Qlae, minimum inhibition concentration of LAE in the mixture ([1]; pH 5.0): 12.8
- Qlae/QLAE ([1]; pH 5.0): 1.00
- Qs, minimum inhibition concentration of potassium sorbate in the mixture ([1]; pH 5.0): 0
- Qs/QS ([1]; pH 5.0): 0.00
- SI, synergy index ([1]; pH 5.0): 1.00
- QLAE, minimum inhibition concentration of LAE as single antimicrobial ([1]; pH 7.4, aqueous solutions): 25.6
- Qlae, minimum inhibition concentration of LAE in the mixture ([1]; pH 7.4, aqueous solutions): 25.6
- Qlae/QLAE ([1]; pH 7.4, aqueous solutions): 1.00
- Qs, minimum inhibition concentration of potassium sorbate in the mixture ([1]; pH 7.4, aqueous solutions): 0
- Qs/QS ([1]; pH 7.4, aqueous solutions): 0.00
- SI, synergy index ([1]; pH 7.4, aqueous solutions): 1.00
- QLAE, minimum inhibition concentration of LAE as single antimicrobial ([2]; pH 5.0): 58.5
- Qlae, minimum inhibition concentration of LAE in the mixture ([2]; pH 5.0): 58.5
- Qlae/QLAE ([2]; pH 5.0): 1.00
- Qs, minimum inhibition concentration of potassium sorbate in the mixture ([2]; pH 5.0): 0
- Qs/QS ([2]; pH 5.0): 0.00
- SI, synergy index ([2]; pH 5.0): 1.00
- QLAE, minimum inhibition concentration of LAE as single antimicrobial ([2]; pH 7.4, aqueous solutions): 25.6
- Qlae, minimum inhibition concentration of LAE in the mixture ([2]; pH 7.4, aqueous solutions): 25.6
- Qlae/QLAE ([2]; pH 7.4, aqueous solutions): 1.00
- Qs, minimum inhibition concentration of potassium sorbate in the mixture ([2]; pH 7.4, aqueous solutions): 0
- Qs/QS ([2]; pH 7.4, aqueous solutions): 0.00
- SI, synergy index ([2]; pH 7.4, aqueous solutions): 1.00
- QLAE, minimum inhibition concentration of LAE as single antimicrobial ([3]; pH 5.0): 21.5
- Qlae, minimum inhibition concentration of LAE in the mixture ([3]; pH 5.0): 21.5
- Qlae/QLAE ([3]; pH 5.0): 1.00
- Qs, minimum inhibition concentration of potassium sorbate in the mixture ([3]; pH 5.0): 0
- Qs/QS ([3]; pH 5.0): 0.00
- SI, synergy index ([3]; pH 5.0): 1.00
- QLAE, minimum inhibition concentration of LAE as single antimicrobial ([3]; pH 7.4, aqueous solutions): 25.6
- Qlae, minimum inhibition concentration of LAE in the mixture ([3]; pH 7.4, aqueous solutions): 25.6
- Qlae/QLAE ([3]; pH 7.4, aqueous solutions): 1.00
- Qs, minimum inhibition concentration of potassium sorbate in the mixture ([3]; pH 7.4, aqueous solutions): 0
- Qs/QS ([3]; pH 7.4, aqueous solutions): 0.00
- SI, synergy index ([3]; pH 7.4, aqueous solutions): 1.00
- QLAE, minimum inhibition concentration of LAE as single antimicrobial ([4]; pH 5.0): 58.5
- Qlae, minimum inhibition concentration of LAE in the mixture ([4]; pH 5.0): 58.5
- Qlae/QLAE ([4]; pH 5.0): 1.00
- Qs, minimum inhibition concentration of potassium sorbate in the mixture ([4]; pH 5.0): 0
- Qs/QS ([4]; pH 5.0): 0.00
- SI, synergy index ([4]; pH 5.0): 1.00
- QLAE, minimum inhibition concentration of LAE as single antimicrobial ([4]; pH 7.4, aqueous solutions): 68.2
- Qlae, minimum inhibition concentration of LAE in the mixture ([4]; pH 7.4, aqueous solutions): 68.2
- Qlae/QLAE ([4]; pH 7.4, aqueous solutions): 1.00
- Qs, minimum inhibition concentration of potassium sorbate in the mixture ([4]; pH 7.4, aqueous solutions): 0
- Qs/QS ([4]; pH 7.4, aqueous solutions): 0.00
- SI, synergy index ([4]; pH 7.4, aqueous solutions): 1.00
